# According to patent US9982152B2, “Active energy ray curable composition, cured product, composition storage container, two-dimensional or three-dimensional image forming apparatus, and two-dimensional or three-dimensional image forming method” (Ricoh Company, Ltd., priority 2016, dated 2018):
# Like-named read-outs stand apart in the source and are kept apart here.
# Tests used:
# [1] = LLNA (Local Lymph Node Assay), SI (Stimulus Index); type: in vivo; details: for Skin Sensitization Potential: judged from SI by LLNA; for SI (by LLNA): measured according to method of JP-2012-140593-A
# Source text: In the present disclosure, compounds having skin sensitization potential refer to those determined to be positive in a skin sensitization test. Hereinafter, such compounds may also be referred to as “skin-sensitizing compounds” or “skin sensitizers”. The skin sensitization test is not limited to a specific test. As an example of the skin sensitization test, LLNA (Local Lymph Node Assay) is known that evaluates the degree of sensitization potential by SI (Stimulus Index). SI of 3 or more is determined to be positive.
# Skin sensitization information described in Table 1 was obtained from SDSs available in Japan or other countries. SI (determined by LLNA) values described in Table 1 were measured according to a method described in JP-2012-140593-A.
# [2] = data source SDS, GHS hazard category for skin sensitizers or negative in a skin sensitization test, cited from earlier work
molecule,measurement,setting,value
"C=C(C)C(=O)OCC(C)(C)COC(=O)C(=C)C [(A-5), Neopentyl glycol dimethacrylate]",Skin Sensitization Potential,[1],Negative
same,Skin Sensitization Potential,[1]; listed as neopentyl glycol dimethacrylate,non-skin-sensitizing
same,SI (by LLNA),[1],SI = 2.0
"Cc1cc(C)c(C(=O)P(=O)(c2ccccc2)c2ccccc2)c(C)c1 [(B1-1), Diphenyl(2,4,6-trimethylbenzoyl)phosphine oxide]",Skin Sensitization Potential,[2],1B
same,Skin Sensitization Potential,[2]; listed as IRGACURE TPO,sub-category 1B
"CSc1ccc(C(=O)C(C)(C)N2CCOCC2)cc1 [(B2-1), 2-Methyl-1-[4-(methylthio)phenyl]-2-morpholinopropane-1-one]",Skin Sensitization Potential,[2],Negative
same,Skin Sensitization Potential,[2]; listed as IRGACURE 907,negative
"CC(C)(O)C(=O)c1ccc(OCCO)cc1 [(B2-4), 1-[4-(2-hydroxyethoxy)phenyl]-2-hydroxy-2-methylpropane-1-one]",Skin Sensitization Potential,[2],Negative
same,Skin Sensitization Potential,[2]; listed as IRGACURE 2959,negative
"Cc1cc(C)c(C(=O)P(=O)(C(=O)c2c(C)cc(C)cc2C)c2ccccc2)c(C)c1 [(B1-2), Phenylbis(2,4,6-trimethylbenzoyl)phosphine oxide]",Skin Sensitization Potential,[2],Category 1
same,Skin Sensitization Potential,[2]; listed as IRGACURE 819,category 1
"CCC(Cc1ccc(C)cc1)(C(=O)c1ccc(N2CCOCC2)cc1)N(C)C (stereo not drawn) [(B2-2), 2-(Dimethylamino)-2-[(4-methylphenyl)methyl]-1-(4-morpholinophenyl)butane-1-one]",Skin Sensitization Potential,[2],Negative
same,Skin Sensitization Potential,[2]; listed as IRGACURE 379,negative
Tricyclodecane dimethanol dimethacrylate [(A-4)],Skin Sensitization Potential,[1],Negative
same,Skin Sensitization Potential,[1]; listed as tricyclodecane dimethanol dimethacrylate,non-skin-sensitizing
same,SI (by LLNA),[1],SI = 1.3
"C=CC(=O)NCCO [(A-2), N-(2-Hydroxyethyl)acrylamide]",Skin Sensitization Potential,[2],Negative
same,Skin Sensitization Potential,[2]; listed as HEAA,negative
"CCn1c2ccc(C(=O)c3ccccc3C)cc2c2cc(C(C)=NOC(C)=O)ccc21 [(B1-4), 1-[9-Ethyl-6-(2-methylbenzoyl)-9H-carbazole-3-yl]ethanone o-acetyloxime]",Skin Sensitization Potential,[2],1B
same,Skin Sensitization Potential,[2]; listed as IRGACURE OXE02,sub-category 1B
"CCCCCCC(=NOC(=O)c1ccccc1)C(=O)c1ccc(Sc2ccccc2)cc1 [(B1-3), 1-[4-(Phenylthio)phenyl]octane-1,2-dione 2-(o-benzoyloxime)]",Skin Sensitization Potential,[2],Category 1
same,Skin Sensitization Potential,[2]; listed as IRGACURE OXE01,category 1
"O=C(c1ccccc1)C1(O)CCCCC1 [(B2-3), 1-Hydroxycyclohexyl phenyl ketone]",Skin Sensitization Potential,[2],Negative
same,Skin Sensitization Potential,[2]; listed as IRGACURE 184,negative
